# According to ChEMBL document CHEMBL3885881, “DrugMatrix”:
# Species on record: Rattus norvegicus
# Test: DrugMatrix - Regimen: Daily Repeat
# Assay type: toxicity, organism-based, Sprague-Dawley
# Parameters: regimen Daily Repeat, gender Male, age 6-8 weeks
# Details: in vivo, po, route oral GAVAGE, vehicle .5 % CMC; for BASOPHIL / EOSINOPHIL / ERYTHROCYTE COUNT / HEMATOCRIT / HEMOGLOBIN / LEUKOCYTE COUNT / LYMPHOCYTE / MEAN CORPUSCULAR HEMOGLOBIN / MEAN CORPUSCULAR HEMOGLOBIN CONCENTRATION / MEAN CORPUSCULAR VOLUME / MONOCYTE / NEUTROPHIL / PLATELET COUNT: tissue Blood; for ALANINE AMINOTRANSFERASE / ALKALINE PHOSPHATASE / ASPARTATE AMINOTRANSFERASE / BLOOD UREA NITROGEN / CHLORIDE / CHOLESTEROL / CREATINE PHOSPHOKINASE / CREATININE / GLUCOSE / PHOSPHORUS / POTASSIUM / SODIUM / TOTAL BILIRUBIN / TOTAL PROTEIN: tissue Plasma
# [1] = 0 mg/kg, 72 h, dose level Control, time 3 day
# [2] = 0 mg/kg, 120 h, dose level Control, time 5 day
# [3] = 20 mg/kg, 72 h, dose level Low, time 3 day
# [4] = 20 mg/kg, 120 h, dose level Low, time 5 day
# [5] = 95 mg/kg, 72 h, dose level High, time 3 day
# [6] = 95 mg/kg, 120 h, dose level High, time 5 day
compound,measurement,setting,value
CN1CCN(C2=Nc3cc(Cl)ccc3Nc3ccccc32)CC1 [CLOZAPINE],BASOPHIL,[1],0%
same,EOSINOPHIL,[1],0.33%
same,ERYTHROCYTE COUNT,[1],6.2 x10E6/uL
same,HEMATOCRIT,[1],38.08%
same,HEMOGLOBIN,[1],14.92 G/DL
same,LEUKOCYTE COUNT,[1],11.13 x10E3/uL
same,LYMPHOCYTE,[1],76%
same,MEAN CORPUSCULAR HEMOGLOBIN,[1],24.1 pg
same,MEAN CORPUSCULAR HEMOGLOBIN CONCENTRATION,[1],39.17 G/DL
same,MEAN CORPUSCULAR VOLUME,[1],61.48 fL
same,MONOCYTE,[1],3.83%
same,NEUTROPHIL,[1],19.83%
same,PLATELET COUNT,[1],1327.5 x10E3/uL
same,ALANINE AMINOTRANSFERASE,[1],40.17 u/L
same,ALKALINE PHOSPHATASE,[1],372 u/L
same,ASPARTATE AMINOTRANSFERASE,[1],67.17 u/L
same,BLOOD UREA NITROGEN,[1],18.83 mg/dL
same,CHLORIDE,[1],105.17 MEQ/L
same,CHOLESTEROL,[1],78.17 mg/dL
same,CREATINE PHOSPHOKINASE,[1],149.17 u/L
same,CREATININE,[1],0.57 mg/dL
same,GLUCOSE,[1],185.17 mg/dL
same,PHOSPHORUS,[1],11.43 mg/dL
same,POTASSIUM,[1],6.78 MEQ/L
same,SODIUM,[1],152.83 MEQ/L
same,TOTAL BILIRUBIN,[1],0.4 mg/dL
same,TOTAL PROTEIN,[1],6.87 G/DL
same,BASOPHIL,[2],0%
same,EOSINOPHIL,[2],0%
same,ERYTHROCYTE COUNT,[2],6.05 x10E6/uL
same,HEMATOCRIT,[2],36.55%
same,HEMOGLOBIN,[2],14.7 G/DL
same,LEUKOCYTE COUNT,[2],11.8 x10E3/uL
same,LYMPHOCYTE,[2],86.83%
same,MEAN CORPUSCULAR HEMOGLOBIN,[2],24.37 pg
same,MEAN CORPUSCULAR HEMOGLOBIN CONCENTRATION,[2],40.32 G/DL
same,MEAN CORPUSCULAR VOLUME,[2],60.47 fL
same,MONOCYTE,[2],0.83%
same,NEUTROPHIL,[2],12.33%
same,PLATELET COUNT,[2],1177 x10E3/uL
same,ALANINE AMINOTRANSFERASE,[2],41.83 u/L
same,ALKALINE PHOSPHATASE,[2],377.5 u/L
same,ASPARTATE AMINOTRANSFERASE,[2],60.83 u/L
same,BLOOD UREA NITROGEN,[2],16 mg/dL
same,CHLORIDE,[2],105.67 MEQ/L
same,CHOLESTEROL,[2],67.83 mg/dL
same,CREATINE PHOSPHOKINASE,[2],120.33 u/L
same,CREATININE,[2],0.6 mg/dL
same,GLUCOSE,[2],167.67 mg/dL
same,PHOSPHORUS,[2],10.03 mg/dL
same,POTASSIUM,[2],6.68 MEQ/L
same,SODIUM,[2],150.5 MEQ/L
same,TOTAL BILIRUBIN,[2],0.57 mg/dL
same,TOTAL PROTEIN,[2],6.25 G/DL
same,BASOPHIL,[3],0%
same,EOSINOPHIL,[3],0.5%
same,ERYTHROCYTE COUNT,[3],5.3 x10E6/uL
same,HEMATOCRIT,[3],33.4%
same,HEMOGLOBIN,[3],12.8 G/DL
same,LEUKOCYTE COUNT,[3],10.25 x10E3/uL
same,LYMPHOCYTE,[3],83.5%
same,MEAN CORPUSCULAR HEMOGLOBIN,[3],24.2 pg
same,MEAN CORPUSCULAR HEMOGLOBIN CONCENTRATION,[3],38.35 G/DL
same,MEAN CORPUSCULAR VOLUME,[3],62.95 fL
same,MONOCYTE,[3],0%
same,NEUTROPHIL,[3],16%
same,PLATELET COUNT,[3],1071.5 x10E3/uL
same,ALANINE AMINOTRANSFERASE,[3],33.33 u/L
same,ALKALINE PHOSPHATASE,[3],312 u/L
same,ASPARTATE AMINOTRANSFERASE,[3],54 u/L
same,BLOOD UREA NITROGEN,[3],13.33 mg/dL
same,CHLORIDE,[3],104.33 MEQ/L
same,CHOLESTEROL,[3],84.67 mg/dL
same,CREATINE PHOSPHOKINASE,[3],145.33 u/L
same,CREATININE,[3],0.57 mg/dL
same,GLUCOSE,[3],148.67 mg/dL
same,PHOSPHORUS,[3],11.43 mg/dL
same,POTASSIUM,[3],6.5 MEQ/L
same,SODIUM,[3],149 MEQ/L
same,TOTAL BILIRUBIN,[3],0.3 mg/dL
same,TOTAL PROTEIN,[3],5.9 G/DL
same,BASOPHIL,[4],0%
same,EOSINOPHIL,[4],0%
same,ERYTHROCYTE COUNT,[4],6.24 x10E6/uL
same,HEMATOCRIT,[4],37.73%
same,HEMOGLOBIN,[4],14.93 G/DL
same,LEUKOCYTE COUNT,[4],15.97 x10E3/uL
same,LYMPHOCYTE,[4],93.67%
same,MEAN CORPUSCULAR HEMOGLOBIN,[4],23.97 pg
same,MEAN CORPUSCULAR HEMOGLOBIN CONCENTRATION,[4],39.57 G/DL
same,MEAN CORPUSCULAR VOLUME,[4],60.57 fL
same,MONOCYTE,[4],1.33%
same,NEUTROPHIL,[4],5%
same,PLATELET COUNT,[4],1152.67 x10E3/uL
same,ALANINE AMINOTRANSFERASE,[4],36.67 u/L
same,ALKALINE PHOSPHATASE,[4],370 u/L
same,ASPARTATE AMINOTRANSFERASE,[4],55.67 u/L
same,BLOOD UREA NITROGEN,[4],13 mg/dL
same,CHLORIDE,[4],106 MEQ/L
same,CHOLESTEROL,[4],72.33 mg/dL
same,CREATINE PHOSPHOKINASE,[4],147.67 u/L
same,CREATININE,[4],0.57 mg/dL
same,GLUCOSE,[4],152.33 mg/dL
same,PHOSPHORUS,[4],11.4 mg/dL
same,POTASSIUM,[4],6.5 MEQ/L
same,SODIUM,[4],149 MEQ/L
same,TOTAL BILIRUBIN,[4],0.3 mg/dL
same,TOTAL PROTEIN,[4],5.87 G/DL
same,BASOPHIL,[5],0%
same,EOSINOPHIL,[5],0.33%
same,ERYTHROCYTE COUNT,[5],6.22 x10E6/uL
same,HEMATOCRIT,[5],37.83%
same,HEMOGLOBIN,[5],14.53 G/DL
same,LEUKOCYTE COUNT,[5],10.53 x10E3/uL
same,LYMPHOCYTE,[5],81.33%
same,MEAN CORPUSCULAR HEMOGLOBIN,[5],23.4 pg
same,MEAN CORPUSCULAR HEMOGLOBIN CONCENTRATION,[5],38.43 G/DL
same,MEAN CORPUSCULAR VOLUME,[5],60.87 fL
same,MONOCYTE,[5],1%
same,NEUTROPHIL,[5],17.33%
same,PLATELET COUNT,[5],1046 x10E3/uL
same,ALANINE AMINOTRANSFERASE,[5],43.67 u/L
same,ALKALINE PHOSPHATASE,[5],361.33 u/L
same,ASPARTATE AMINOTRANSFERASE,[5],61.67 u/L
same,BLOOD UREA NITROGEN,[5],16.33 mg/dL
same,CHLORIDE,[5],108 MEQ/L
same,CHOLESTEROL,[5],85.33 mg/dL
same,CREATINE PHOSPHOKINASE,[5],131.33 u/L
same,CREATININE,[5],0.57 mg/dL
same,GLUCOSE,[5],153.33 mg/dL
same,PHOSPHORUS,[5],11.9 mg/dL
same,POTASSIUM,[5],7.33 MEQ/L
same,SODIUM,[5],154.33 MEQ/L
same,TOTAL BILIRUBIN,[5],0.27 mg/dL
same,TOTAL PROTEIN,[5],6.13 G/DL
same,BASOPHIL,[6],0%
same,EOSINOPHIL,[6],0.67%
same,ERYTHROCYTE COUNT,[6],6.78 x10E6/uL
same,HEMATOCRIT,[6],41.33%
same,HEMOGLOBIN,[6],16.27 G/DL
same,LEUKOCYTE COUNT,[6],12.7 x10E3/uL
same,LYMPHOCYTE,[6],89.67%
same,MEAN CORPUSCULAR HEMOGLOBIN,[6],24.13 pg
same,MEAN CORPUSCULAR HEMOGLOBIN CONCENTRATION,[6],39.43 G/DL
same,MEAN CORPUSCULAR VOLUME,[6],61.1 fL
same,MONOCYTE,[6],0.33%
same,NEUTROPHIL,[6],9.33%
same,PLATELET COUNT,[6],1299 x10E3/uL
same,ALANINE AMINOTRANSFERASE,[6],60.33 u/L
same,ALKALINE PHOSPHATASE,[6],306.67 u/L
same,ASPARTATE AMINOTRANSFERASE,[6],59.67 u/L
same,BLOOD UREA NITROGEN,[6],14.67 mg/dL
same,CHLORIDE,[6],107 MEQ/L
same,CHOLESTEROL,[6],96.67 mg/dL
same,CREATINE PHOSPHOKINASE,[6],136 u/L
same,CREATININE,[6],0.5 mg/dL
same,GLUCOSE,[6],158 mg/dL
same,PHOSPHORUS,[6],11.83 mg/dL
same,POTASSIUM,[6],6.7 MEQ/L
same,SODIUM,[6],155.67 MEQ/L
same,TOTAL BILIRUBIN,[6],0.2 mg/dL
same,TOTAL PROTEIN,[6],6.6 G/DL
